Measured values from ChEMBL document CHEMBL1287696, “N-substituted pyrrolidines and tetrahydrofurans as novel AMPAR positive modulators” (Bioorg Med Chem Lett, 2010).

Key:
Glutamate receptor 2 [1] = target: T1, Glutamate receptor 2 (Homo sapiens, UniProt P42262); assay: Positive modulation of human GluA2 flip receptor by FLIPR assay
Glutamate receptor 2 [2] = target: T1, Glutamate receptor 2; assay: Positive modulation of human GluA2 flip receptor by FLIPR assay relative to cyclothiazide; design: concentration or dose not given beside the values
[3] = target: Voltage-gated inwardly rectifying potassium channel KCNH2 (Homo sapiens, UniProt Q12809); assay: Displacement of [3H]-dofetilide from human hERG
[4] = Aqueous solubility of the compound; format: physicochemical; settings: aqueous medium
Liver microsomes = assay: Intrinsic clearance in human liver microsomes; format: ADME, Microsome
[5] = Half life in rat; format: ADME, organism-based; settings: in vivo
[6] = Ratio of drug level in brain to blood in rat

T1 sequence (P42262 whole entry): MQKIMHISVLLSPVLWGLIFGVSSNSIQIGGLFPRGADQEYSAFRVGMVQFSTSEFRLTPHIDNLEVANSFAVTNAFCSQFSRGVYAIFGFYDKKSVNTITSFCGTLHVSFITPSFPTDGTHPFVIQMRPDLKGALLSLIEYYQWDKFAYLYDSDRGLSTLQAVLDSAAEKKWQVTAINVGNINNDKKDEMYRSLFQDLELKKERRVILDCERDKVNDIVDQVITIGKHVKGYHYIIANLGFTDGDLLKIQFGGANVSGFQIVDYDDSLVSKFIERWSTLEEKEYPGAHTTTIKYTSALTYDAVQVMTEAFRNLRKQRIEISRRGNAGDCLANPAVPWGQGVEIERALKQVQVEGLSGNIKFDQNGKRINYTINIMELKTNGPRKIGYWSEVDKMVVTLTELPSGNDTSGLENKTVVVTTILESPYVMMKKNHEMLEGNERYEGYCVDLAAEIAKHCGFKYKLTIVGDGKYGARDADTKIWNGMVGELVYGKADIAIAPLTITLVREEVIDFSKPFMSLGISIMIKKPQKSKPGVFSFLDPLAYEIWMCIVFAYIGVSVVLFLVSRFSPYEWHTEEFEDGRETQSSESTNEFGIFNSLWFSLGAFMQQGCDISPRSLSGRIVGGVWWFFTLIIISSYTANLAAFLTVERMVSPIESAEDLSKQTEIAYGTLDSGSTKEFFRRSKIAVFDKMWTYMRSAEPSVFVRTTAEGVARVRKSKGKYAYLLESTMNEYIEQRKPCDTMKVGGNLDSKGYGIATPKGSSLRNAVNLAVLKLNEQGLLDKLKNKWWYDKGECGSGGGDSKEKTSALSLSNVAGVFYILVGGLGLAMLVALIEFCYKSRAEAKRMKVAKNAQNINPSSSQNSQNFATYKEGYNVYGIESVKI
Voltage-gated inwardly rectifying potassium channel KCNH2, sequence (Q12809 whole entry): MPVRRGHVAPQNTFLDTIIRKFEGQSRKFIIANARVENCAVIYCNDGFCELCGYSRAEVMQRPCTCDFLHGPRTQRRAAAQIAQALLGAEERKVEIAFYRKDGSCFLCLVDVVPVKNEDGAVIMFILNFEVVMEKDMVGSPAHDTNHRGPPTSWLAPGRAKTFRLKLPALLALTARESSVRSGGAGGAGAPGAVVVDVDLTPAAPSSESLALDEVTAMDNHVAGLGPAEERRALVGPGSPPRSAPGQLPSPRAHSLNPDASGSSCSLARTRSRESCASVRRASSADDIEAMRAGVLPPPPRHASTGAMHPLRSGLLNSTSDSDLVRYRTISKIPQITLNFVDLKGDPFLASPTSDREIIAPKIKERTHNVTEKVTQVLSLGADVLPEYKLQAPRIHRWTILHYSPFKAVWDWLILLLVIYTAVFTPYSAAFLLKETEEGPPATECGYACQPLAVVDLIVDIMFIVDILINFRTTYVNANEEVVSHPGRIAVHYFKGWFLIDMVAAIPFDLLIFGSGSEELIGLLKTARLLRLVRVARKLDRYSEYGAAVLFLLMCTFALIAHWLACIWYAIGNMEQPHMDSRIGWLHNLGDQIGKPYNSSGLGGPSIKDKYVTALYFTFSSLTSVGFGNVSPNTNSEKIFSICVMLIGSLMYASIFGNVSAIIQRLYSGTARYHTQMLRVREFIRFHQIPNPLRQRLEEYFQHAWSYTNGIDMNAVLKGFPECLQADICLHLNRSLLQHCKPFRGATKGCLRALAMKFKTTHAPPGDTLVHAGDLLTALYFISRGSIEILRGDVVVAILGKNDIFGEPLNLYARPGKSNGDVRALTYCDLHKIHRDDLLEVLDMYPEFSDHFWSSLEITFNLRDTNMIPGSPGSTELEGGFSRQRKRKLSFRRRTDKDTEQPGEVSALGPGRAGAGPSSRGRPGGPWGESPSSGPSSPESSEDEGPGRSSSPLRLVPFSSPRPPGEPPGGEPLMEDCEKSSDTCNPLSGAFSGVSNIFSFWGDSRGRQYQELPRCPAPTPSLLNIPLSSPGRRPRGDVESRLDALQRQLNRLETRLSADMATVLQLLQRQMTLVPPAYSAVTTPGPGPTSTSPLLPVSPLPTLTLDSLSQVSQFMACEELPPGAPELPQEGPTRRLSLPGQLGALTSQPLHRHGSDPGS

Compound	EC50 (Glutamate receptor 2 [1])	Activity (Glutamate receptor 2 [2])	IC50 [3]	solubility [4]	CL (Liver microsomes)	half-life [5]	Kp [6]
CC(C)S(=O)(=O)N[C@H]1CN(c2ccccc2)CC1c1ccc(-c2ccc(C#N)cc2)cc1 (single isomer, unassigned)	6.2 µM	48%	0.8 µM	–	–	–	–
CC(=O)c1cccc(-c2ccc(C3COC[C@H]3NS(=O)(=O)C(C)C)cc2)c1 (single isomer, unassigned)	0.1 µM	124%	–	–	–	–	–
CC(=O)c1cccc(-c2ccc(C3CN(C)C[C@@H]3NS(=O)(=O)C(C)C)cc2)c1 (single isomer, unassigned)	6.3 µM	73%	7.9 µM	–	–	–	–
CC(C)S(=O)(=O)N[C@@H]1COCC1c1ccc(-c2ccc(F)nc2)cc1 (single isomer, unassigned)	0.3 µM	125%	12.6 µM	–	–	–	–
CC(C)S(=O)(=O)N[C@H]1CN(C)CC1c1ccc(-c2cccc(NS(C)(=O)=O)c2)cc1 (single isomer, unassigned)	0.3 µM	124%	31.6 µM	> 9000 µg/mL	–	–	–
CC(C)S(=O)(=O)N[C@H]1CN(c2ccccc2)CC1c1ccc(-c2cccc(NS(C)(=O)=O)c2)cc1 (single isomer, unassigned)	5 µM	38%	–	–	–	–	–
CC(C)S(=O)(=O)N[C@H]1CN(C)CC1c1ccc(-c2cccnc2)cc1 (single isomer, unassigned)	4 µM	100%	31.6 µM	–	–	–	–
CC(C)S(=O)(=O)N[C@H]1CN(C)CC1c1ccc(-c2cccc(C(F)(F)F)c2)cc1 (single isomer, unassigned)	79.4 µM	26%	–	–	–	–	–
CC(C)S(=O)(=O)N[C@H]1CN(C)CC1c1ccc(-c2ccsc2)cc1 (single isomer, unassigned)	3.2 µM	106%	4 µM	–	–	–	–
CCN1CC(c2ccc(-c3cccc(NS(C)(=O)=O)c3)cc2)[C@@H](NS(=O)(=O)C(C)C)C1 (single isomer, unassigned)	1.6 µM	111%	2.5 µM	–	0.7 mL/min/g	–	–
CCN1CC(c2ccc(-c3ccc(C#N)cc3)cc2)[C@@H](NS(=O)(=O)C(C)C)C1 (single isomer, unassigned)	7.9 µM	90%	–	–	1.2 mL/min/g	–	–
CC(C)S(=O)(=O)N[C@@H]1COCC1c1ccc(-c2cncc(F)c2)cc1 (single isomer, unassigned)	0.3 µM	131%	> 63 µM	–	0.6 mL/min/g	–	–
CC(C)S(=O)(=O)N[C@@H]1COCC1c1ccc(-c2ccc(F)cn2)cc1 (single isomer, unassigned)	0.3 µM	117%	> 63 µM	–	0.8 mL/min/g	–	–
CC(C)S(=O)(=O)N[C@@H]1COCC1c1ccc(-c2cccs2)cc1 (single isomer, unassigned)	0.3 µM	117%	> 63 µM	–	–	–	–
CC(C)S(=O)(=O)N[C@H]1CN(C)CC1c1ccc(-c2cccc(S(C)(=O)=O)c2)cc1 (single isomer, unassigned)	5 µM	75%	–	–	–	–	–
CC(C)S(=O)(=O)N[C@H]1CN(c2ccccc2)CC1c1ccc(-c2ccc(F)nc2)cc1 (single isomer, unassigned)	4 µM	74%	0.08 µM	–	–	–	–
CC(C)S(=O)(=O)N[C@H]1CN(C)CC1c1ccc(-c2ccccc2F)cc1 (single isomer, unassigned)	2.5 µM	20%	–	–	–	–	–
CC(C)S(=O)(=O)N[C@H]1CN(C)CC1c1ccc(-c2ccc(C#N)cc2)cc1 (single isomer, unassigned)	5 µM	109%	–	> 2700 µg/mL	0.8 mL/min/g	> 2 h	1.8
CC(C)N1CC(c2ccc(-c3ccc(C#N)cc3)cc2)[C@@H](NS(=O)(=O)C(C)C)C1 (single isomer, unassigned)	20 µM	30%	–	–	–	–	–
CC(C)S(=O)(=O)N[C@H]1CN(C)CC1c1ccc(-c2ccc(F)nc2)cc1 (single isomer, unassigned)	5 µM	117%	1 µM	–	0.8 mL/min/g	–	–
CC(=O)Nc1cccc(-c2ccc(C3CN(C)C[C@@H]3NS(=O)(=O)C(C)C)cc2)c1 (single isomer, unassigned)	4 µM	79%	12.6 µM	–	–	–	–
CC(C)S(=O)(=O)N[C@H]1CN(C)CC1c1ccc(-c2cccs2)cc1 (single isomer, unassigned)	20 µM	29%	> 63 µM	–	–	–	–
CC(C)S(=O)(=O)N[C@H]1CN(C)CC1c1ccc(-c2cccnc2F)cc1 (single isomer, unassigned)	2.5 µM	101%	6.3 µM	–	–	–	–
CC(C)S(=O)(=O)N[C@@H]1COCC1c1ccc(-c2ccc(C#N)cc2)cc1 (single isomer, unassigned)	0.5 µM	112%	12.6 µM	–	–	–	–
CC(C)N1CC(c2ccc(-c3cccc(NS(C)(=O)=O)c3)cc2)[C@@H](NS(=O)(=O)C(C)C)C1 (single isomer, unassigned)	–	89%	–	–	0.7 mL/min/g	–	–
CC(C)S(=O)(=O)N[C@@H]1COCC1c1ccc(-c2ccsc2)cc1 (single isomer, unassigned)	0.4 µM	120%	–	–	–	–	–
